# Columns and labels:
# [1] = test system: yqxM operon; format: cell-based, B. subtilis strain Marburg
# [2] = test system: B. subtilis strain FB17; test: capillary chemotaxis assay; format: cell-based, Bacillus subtilis
# Procedure: (§1) To evaluate MA's ability to selectively recruit FB17, microbial motility at varying MA doses was measured by capillary chemotaxis assay (Gordillo et al., 2007). […] The concentration range of 5 to 30 μM falls within the biological titers of MA secreted in planta through the root exudates. […] To establish whether L-MA specifically chemoattracts FB17, other beneficial bacteria, such as Pseudomonas fluorescens strain Pf01 and Azospirillum brasilense strain Cd, and pathogenic bacteria, such as Pst DC3000, Erwinia carotovora strain AH2, Agrobacterium rhizogenes strain Arqua-1, and Agrobacterium tumefaciens strain LBA4404, were assayed for MA. […] Bacterial strains used in the chemotactic assay included B. subtilis strain FB17, A. tumefaciens strain LBA4404, E. carotovora strain AH2, A. rhizogenes strain Arqua-1, A. brasilense strain Cd, P. fluorescens (Pf01), and P. syringae (Pst DC3000). Data are the average of six replicates from two experiments conducted separately.
# [3] = test system: PR1::GUS; test: PR1::GUS reporter expression in Arabidopsis
# [4] = test system: DC3000; test: acetoin treatment of Arabidopsis plants leaf inoculated with DC3000
# [5] = test system: free SA; test: free SA levels in Arabidopsis leaves; details: compared to control untreated plants
# [6] = test system: PDF1.2 and PR1 transcripts; test: RT-PCR of defense genes PDF1.2 and PR1; format: in vivo, Arabidopsis thaliana; details: leaves, compared to mock inoculated plants
# From the text: To further confirm that a FB17 component, acetoin, mediates this response we analyzed the defense genes PDF1.2 and Jin1 whose expression depends on functional ET and JA pathways.
# [7] = test system: Pst DC3000; test: capillary chemotaxis assay; format: cell-based, Pseudomonas syringae pv tomato
# Procedure: as §1
# [8] = test system: Agrobacterium rhizogenes strain Arqua-1; test: capillary chemotaxis assay; format: cell-based
# Procedure: as §1
# [9] = test system: Agrobacterium tumefaciens strain LBA4404; test: capillary chemotaxis assay; format: cell-based
# Procedure: as §1
# [10] = test system: Azospirillum brasilense strain Cd; test: capillary chemotaxis assay; format: cell-based
# Procedure: as §1
# [11] = test system: Erwinia carotovora strain AH2; test: capillary chemotaxis assay; format: cell-based
# Procedure: as §1
# [12] = test system: Pseudomonas fluorescens strain Pf01; test: capillary chemotaxis assay; format: cell-based
# Procedure: as §1
smiles,measurement,setting,value
"O=C(O)C(=O)O [oxalic acid, reference compound]",expression of biofilm operon yqxM (β-galactosidase activity),[1],did not stimulate β-galactosidase activity
same,chemotactic efficacy compared to the natural L-MA form,[2]; 30 μM,lower efficacies
O=C(O)C[C@@H](O)C(=O)O [D-MA],expression of biofilm operon yqxM (β-galactosidase activity),[1],did not stimulate β-galactosidase activity
same,chemotactic efficacy compared to the natural L-MA form,[2]; 30 μM,lower efficacies
same,chemotaxis compared to water control,[2]; 30 μM,significantly higher than the water control
"CC(=O)C(C)O (stereo not drawn) [acetoin, 3-hydroxy-2-butanone]",PR1::GUS expression,[3]; treated or root inoculated plants compared to untreated plants,enhanced PR1 expression
same,percent disease incidence,"[4]; Arabidopsis, ratio of leaves with symptoms to leaves inoculated, vs untreated",significantly lower
same,disease symptoms,"[4]; Arabidopsis, volatile treatment, 5 days post-infection, compared to untreated controls",significantly lower disease symptoms
same,DC3000 CFUs from leaves,"[4]; Arabidopsis, vs untreated, P<0.05",lower DC3000 CFUs
same,protection from DC3000 infection,[4]; SA deficient NahG plants,failed to protect
same,protection from DC3000 infection,[4]; ethylene mutant etr1-3 plants,failed to protect
same,DC3000 multiplication in terms of CFUs,[4]; jasmonic acid mutant Jar1-1,significantly reduction in DC3000 multiplication
same,DC3000 multiplication in terms of CFUs,[4]; wild type Col-0,significantly reduction in DC3000 multiplication
same,free SA levels,[5],enhances the total free SA level
same,PDF1.2 transcripts,[6],more
same,PR1 transcripts,[6],more
"O=C(O)C[C@H](O)C(=O)O [L-MA, L-malic acid]",expression of biofilm operon yqxM (β-galactosidase activity),[1],elevated expression
same,β-galactosidase activity level and kinetics compared to root exudates,[1],activity level was lower and the kinetics response was abbreviated
same,motility toward L-MA compared to FB17,[7],none of the bacteria shows any significant motility
same,motility toward L-MA compared to FB17,[8],none of the bacteria shows any significant motility
same,motility toward L-MA compared to FB17,[9],none of the bacteria shows any significant motility
same,motility toward L-MA compared to FB17,[10],none of the bacteria shows any significant motility
same,motility toward L-MA compared to FB17,[11],none of the bacteria shows any significant motility
same,motility toward L-MA compared to FB17,[12],none of the bacteria shows any significant motility
same,chemotactic behavior of FB17,[2]; dose range of 5 to 30 μM,positive chemotactic behavior in a concentration-dependent manner
O=C(O)c1ccccc1O [SA],PR1 expression,[3]; leaves sprayed,higher PR1 expression
same,PR1 expression,[3]; root treated plants,much less PR1 expression

# From patent US9023758B2, “Methods for promoting plant health” (University of Delaware, priority 2009, dated 2015)
